2 molecules from patent publication US20160280651A1, “COMPOUNDS THAT INDUCE ABA RESPONSES” (THE REGENTS OF THE UNIVERSITY OF CALIFORNIA, priority 2013, published 2016) can be followed below.

“Also recorded” adds a separate entry of the source.

Experiment [1] relates to detached leaves of crop species. Kind of experiment: Water loss analyses in diverse species. The experiment is classed as in vivo, soybean, barley, maize and other species. The conditions noted are these: over a period of 2 hours. Here is the method:
(§1) FIG. 13A-FIG. 13E. LC66C6 modulates ABA responses in diverse species. Germination inhibition (A) and transpirational water loss in detached leaves 2-hours after detachment (B) in response to compounds shown. The expression of ABA-responsive marker genes in Soybean (C), Barley (D) and Maize (E) after application of chemicals. D, P, L and A indicate DMSO, pyrabactin, LC66C6 and (+)-ABA, respectively.
For water loss analyses using soybean barley and maize, 100 μM chemical solution containing 0.05% Tween-20 was sprayed on to the aerial parts of the plants. The soybean, barley and maize plants used were approximately 4-, 2- and 2-weeks old respectively. Compounds were applied 16 hours before water loss assays were conduction. To measure water loss entire shoots were detached and their fresh weight monitored.

A further experiment deals with ZmRab17 and ZmLEA. The experiment in a line: Quantitative RT-PCR of ABA-responsive genes in maize. The experiment is classed as in vivo.
Text: as §1
Total RNA was isolated using Plant RNA purification reagent (Invitrogen, USA) according to the manufacturer's instructions. cDNA was synthesized from 1 μg of total RNA using the QantiTec reverse transcription kit (Qiagen, USA). Real-time PCR using Maxima® SYBR Green/Fluorescein qPCR Master Mix (Fermentas) was performed with the iQ5 real-time PCR detection system (Bio-Rad, Hercules, Calif.). The relative amounts of target mRNAs were determined using the relative standard curve method and were normalized by relative amount of internal control mRNA. Biological triplicate experiments were performed.

In a further experiment the test system is Chlamydomonas. Kind of experiment: Colony growth of Chlamydomonas with and without salinity and osmotic stress. The experiment is classed as in vivo. Here is the method: (§2) FIG. 17A-FIG. 17D. The effect of ABA and its agonists in Physcomitrella patens and Chlamydomonas. Protonemal growth images (A) and quantitative analysis (B) of the effects of ABA and agonists on Phsycomitrella patens. Protonema were grown on 200 μM of specific test chemical for 10 days. […] Pyrabactin bleached protonema. (C) The expression of ABA-responsive genes of Physcomitrella patens. Protonema were treated with 200 μM chemical solutions for 3 h. (D) Colony growth of Chlamydomonas on the chemical with salinity stress and osmotic stress. There was no effect of ABA and LC66C6 on the Chlamydomonas growth with and without stresses.

In another experiment the test system is Arabidopsis seeds. Kind of experiment: Arabidopsis germination inhibition, wild type and mutants, Example 2. The experiment is classed as in vivo. Here is the method:
FIG. 5A-FIG. 5D. Novel ABA agonists inhibit germination of Arabidopsis seeds more strongly than pyrabactin. (A) and (B) Comparison of seed germination inhibition by ABA agonists. (C) and (D) the effects of ABA and LC66C6 (also called quinabactin) on Arabidopsis ABA signaling- and biosynthesis-deficient mutants on germination (C) and seedling establishment (D). Seeds were sown on ½×MS agar plate containing chemicals, and were stored at 4° C. for 4 days, then transferred at 22±2° C. Photographs (A and C) and germination (B) or green cotyledon (D) scores were assessed after a 4-day incubation under continuous illumination.
As a third screening approach, the Life Chemicals library was also screened for Arabidopsis germination inhibitors in solidified agar medium containing 0.5×MS salts, 0.5% sucrose and 25 μM test compound. Hits from the germination assay were subsequently tested in yeast two hybrid assays. Hit compounds were restocked from their original vendors and used in secondary screens and compound characterization. […]
For Arabidopsis germination and hypocotyl growth inhibition analysis, seeds after-ripened about 4 weeks were surface-sterilized with a solution containing 5% NaClO and 0.05% Tween-20 for 10 minutes, and rinsed with water four times. […] Germination was determined after a 4-day incubation, whereas hypocotyl growth was photographed after 6-day incubation.

A further experiment relates to Arabidopsis plants. Kind of experiment: Arabidopsis drought stress assay. The experiment is classed as in vivo. Conditions: 25 μM, aerosol every 3 days. Here is the method: FIG. 8A-FIG. 8B. Quinabactin confers drought stress tolerance to wild-type plants. (A) Effect of quinabactin on Arabidopsis drought tolerance. Two-week-old plants were subjected to drought stress by withholding water and were photographed after 12 days. During the drought period, plants were treated every 3 days with 25 μM compound. Plants were re-hydrated after 2 weeks drought treatment; the number of surviving plants (out of total number tested) for each treatment is shown next to each image. (B) Effects of quinabactin on soybean. Two-week-old plants were subjected to drought stress by withholding water and photographed after 8 days drought treatment. […]
Physiological assays were performed on Arabidopsis plants grown at 22±2° C. and relative humidity (RH) 45±10% under a 16/8-h light/dark cycle. […] 12 4-week old plants were sprayed per compound or control analyzed. After overnight pre-treatment with compounds, the aerial portions were detached from roots, and their fresh weight measured at 20 min intervals over a 2 hour time period. […] The leaf impressions were analyzed by light microscopy and stomatal apertures were determined from the pore widths using ImageJ 1.43v software (National Institutes of Health, USA). […] Pots were covered in Parafilm to so that the water loss measured was transpiration mediated. […]

The next experiment deals with Physcomitrella patens. The experiment in a line: Protonema growth of moss. The experiment is classed as in vivo. Conditions: 200 μM for 10 days. Here is the method: as §2

Regarding `CCCN1C(=O)CCc2cc(NS(=O)(=O)Cc3ccc(C)cc3)ccc21` [LC66C6], the “Transpirational water loss in detached leaves of diverse species” value in experiment [1] is recorded as “reduces transpirational water loss”. Further, in the experiment with ZmRab17 and ZmLEA, the “Expression of ABA-responsive genes ZmRab17 and ZmLEA” value is reported as “weakly induces”. Besides, in the experiment with Chlamydomonas, the “Growth of Chlamydomonas” value was “no effect”. The “Inhibition of germination of wild-type seeds” value in the experiment on Arabidopsis seeds was “nearly as effective, on a per mole basis, at inhibiting germination as (+)-ABA; also recorded: one of the most effective agonists, after (+)-ABA, at inhibiting germination of wild-type seeds”. Moreover, the Drought stress tolerance entry in the experiment on Arabidopsis plants is given as “confers drought stress tolerance in Arabidopsis plants similar to that conferred by treatment with (+)-ABA”. Also, the Growth of protonema entry in the experiment with Physcomitrella patens is recorded as “weak but significant inhibition”.
For the molecule `O=S(=O)(NCc1ccccn1)c1ccc(Br)c2ccccc12` [pyrabactin, reference compound], the “Growth of Chlamydomonas” value with Chlamydomonas is “bleached the Chlamydomonas”. In the experiment on Physcomitrella patens, the Growth of protonema result was “bleached the protonema”.
